According to patent US10316041B2, “Spiro-lactam NMDA receptor modulators and uses thereof” (Apytinyx Inc., priority 2013, dated 2019):
Like-named read-outs stand apart in the source and are kept apart here.

Key:
[1] = Porsolt test (floating time); assay type: in vivo; details: 3 mg/kg, IV, 1 hour post dose
[2] = system: Schaffer collateral-CA1 synapses in hippocampal slices; test: Long term potentiation in hippocampal slices; assay type: cell-based, rat
Description: Assays were conducted as described in Zhang et al. (Zhang, X. L., Sullivan, J. A., Moskal, J. R., Stanton, P. K., 2008. A NMDA receptor glycine site partial agonist, GLYX-13, simultaneously enhances LTP and reduces LTD at Schaffer collateral-CA1 synapses in hippocampus. Neuropharmacology. 55, 1238-50) Sprague-Dawley rats (12-18 days old; Taconic Farms) were deeply anesthetized with isoflurane and decapitated. Rat brains were removed rapidly, submerged in ice-cold artificial cerebrospinal fluid (ACSF, 2-4° C.), which contained (in mM): 124 NaCl, 4 KCl, 2 MgSO4, 2 CaCl2, 1.25 NaH2PO4, 26 NaHCO3, 10 glucose; at pH 7.4, gassed continuously with 95% O2/5% CO2). The rat brains were hemisected, the frontal lobes cut off, and individual hemispheres glued using cyanoacrylate adhesive onto a stage immersed in ice-cold ACSF gassed continuously with 95% O2/5% CO2 during slicing. Coronal slices (400 μm thick) were cut using a Vibratome (Leica VT1200S), and transferred to an interface holding chamber for incubation at room temperature for a minimum of one hour before transferring to a Haas-style interface recording chamber continuously perfused at 3 ml/min with oxygenated ACSF at 32±0.5° C. […] A bipolar stainless steel stimulating electrode (FHC Co.) was placed on Schaffer collateral-commissural fibers in CA3 stratum radiatum, and constant current stimulus intensity adjusted to evoke approximately half-maximal fEPSPs once each 30 s ([…]; 100 μs duration). fEPSP slope was measured before and after induction of LTP by linear interpolation from 20 to 80% of maximum negative deflection, and slopes confirmed to be stable to within ±10% for at least 15 min before commencing an experiment. […] The signals were recorded using a Multiclamp 700B amplifier and digitized with a Digidata 1322 (Axon Instruments, USA). Data were analyzed using pClamp software (version 9, Axon Instruments) on an IBM-compatible personal computer.

[3] = target: T1, NMDA receptor (rat cortical membranes) (Rattus norvegicus, UniProt P35439); test: [3H]MK-801 binding assay (potentiation of binding); details: for Activity (%): maximal activity, % maximal stimulation (1 mM glycine)
T1 construct: from tissue; host or cells: rat cerebral cortex membranes
Description: Assays were conducted as described in Moskal et al. (Moskal, J. R., Kuo, A. G., Weiss, C., Wood, P. L., O'Connor Hanson, A., Kelso, S., Harris, R. B., Disterhoft, J. F., 2005. GLYX-13: a monoclonal antibody-derived peptide that acts as an N-methyl-D-aspartate receptor modulator. Neuropharmacology. 49, 1077-87) The potentiation of [^3H]MK-801 binding (5 nM; 22.5 Ci/mmol) to well washed rat cortical membranes (200 μg) was measured under non-equilibrium conditions (15 min @ 25° C.) in the presence of increasing concentrations of test compounds and 50 μM glutamate. Zero levels were determined in the absence of any glycine ligand and in the presence of 30 μM 5.7 DCKA. Maximal stimulation was measured in the presence of 1 mM glycine, and 50 μM glutamate was present in all samples. The facilitation of [^3H]MK-801 binding by tests compounds was calculated by using a 3 parameter log agonist vs. response equation (Graph pad Prism, USA) and potency (EC50 expressed in pM) and maximal activity (% maximal stimulation) were calculated for the test compound.

[4] = potentiation of [3H]MK-801 binding, 50 μM glutamate, rat cortical membranes, read-out: pEC50 (converted)
[5] = read-out: [3H] MK-801 binding assay: EC50

Row | Compound | Activity (%) [3] | EC50 [3, 4] | EC50 [3, 5] | other results
1 | (2R, 3S)-4-amino-3-(2-(5-(1-benzyl-5-methyl-1H-1, 2, 3-triazole-4-carbonyl)-1-oxo-2, 5-diazaspiro [3.4] octan-2-yl) acetamido)-4-oxobutan-2-yl acetate [Compound B] | 47% | 0.006 nM | 0.00727 nM | Unified Activity Data: Porsolt Floating Time Inhibition (Percent) [1]: 86%; Unified Activity Data: LTP Augmentation (Percent) ([2]; LTP Concentration 0.1 uM): 110%; long-term potentiation after high frequency stimulation of Schaffer collateral-evoked NMDA e.p.s.c.s in CA1 pyramidal neurons ([2]; tested at 0.11 μM, FIG. 5): increased long-term potentiation
2 | CC(=O)N1CCCC12CN(CC(=O)N[C@H](C(N)=O)[C@@H](C)O)C2=O (single isomer, unassigned) [Compound 6S-FNL-7-F2] |  |  |  | Unified Activity Data: Porsolt Floating Time Inhibition (Percent) [1]: 80%; Unified Activity Data: LTP Augmentation (Percent) ([2]; LTP Concentration 1 uM): 150%
3 | CC(=O)O[C@H](C)[C@H](NC(=O)CN1CC2(CCCN2)C1=O)C(N)=O (stereo partly drawn) [Compound 6S-FNL-3, (2R, 3S)-4-amino-4-oxo-3-(2-(1-oxo-2,5-diazaspiro [3.4]octan-2-yl)acetamido) butan-2-yl acetate] |  |  | 1690 nM | 
4 | C[C@@H](O)[C@H](NC(=O)CN1CC2(CCCN2C(=O)c2ncnn2C)C1=O)C(=O)N1CCCC1 (stereo partly drawn) [Compound D, N-((2S, 3R)-3-hydroxy-1-oxo-1-(pyrrolidin-1-yl)butan-2-yl)-2-(5-(1-methyl-1H-1,2,4-triazole-5-carbonyl)-1-oxo-2,5-diazaspiro[3.4]octan-2-yl) acetamide] | 5% | 0.159 nM |  | 

Second part, led by results:

Row | Activity (%) [3] | EC50 [3, 4] | EC50 [3, 5] | Compound | other results
5 | 20% | 0.195 nM |  | CC(=O)N1CCCC12CN(CC(=O)N[C@H](C(N)=O)[C@@H](C)O)C2=O (stereo partly drawn) [Compound H, (2S,3R)-2-(2-(5-acetyl-1-oxo-2,5-diazaspiro[3.4]octan-2-yl)acetamido)-3-hydroxy butanamide] | 
6 |  |  | > 10000 nM | C[C@@H](O)[C@H](NC(=O)CN1CC2(CCCN2C(=O)OCc2ccccc2)C1=O)C(N)=O (stereo in doubt) [Compound 6S-FNL-4, Benzyl 2-(2-((1-amino-3-hydroxy-1-oxobutan-2-yl)amino)-2-oxoethyl)-1-oxo-2,5-diazaspiro [3.4] octane-5-carboxylate] | 
7 | 10% | 0.007 nM |  | C[C@@H](O)[C@H](NC(=O)CN1CC2(CCCN2C(=O)c2ncnn2C)C1=O)C(N)=O (stereo partly drawn) [Compound C, (2S,3R)-3-hydroxy-2-(2-(5-(1-methyl-1H-1,2,4-triazole-5-carbonyl)-1-oxo-2,5-diazaspiro[3.4]octan-2-yl)acetamido) butanamide] | 
